The text below walks through data of patent EP4707263A1, “FLUORINATING AGENT AND FLUORINATION METHOD” (Daikin Industries, Ltd., priority 2024, dated 2025).

This series can be described thus: pKa (acid dissociation constant) determined by neutralization titration. Format: physicochemical. The note with it: acid dissociation constant at 25°C in water.

A word on the pKa: it is the negative logarithm of the acid dissociation constant.

In turn, `CO` [Base B-2, KOMe] returned a pKa of 16.
